The source of these data is ChEMBL document CHEMBL1137967, “Lactams as EP4 prostanoid receptor subtype selective agonists. Part 1: 2-Pyrrolidinones-stereochemical and lower side-chain optimization” (Bioorg Med Chem Lett, 2004).

Some results are limits rather than exact numbers.

For experiment [1], the target named is Prostaglandin E2 receptor EP2 subtype (Homo sapiens, UniProt P43116). The experiment is described as follows: Binding affinity was determined against prostanoid EP2 receptor.
The target of experiment [2] is T1, Prostaglandin E2 receptor EP3 subtype (Homo sapiens, UniProt P43115).
T1 sequence (P43115 whole entry): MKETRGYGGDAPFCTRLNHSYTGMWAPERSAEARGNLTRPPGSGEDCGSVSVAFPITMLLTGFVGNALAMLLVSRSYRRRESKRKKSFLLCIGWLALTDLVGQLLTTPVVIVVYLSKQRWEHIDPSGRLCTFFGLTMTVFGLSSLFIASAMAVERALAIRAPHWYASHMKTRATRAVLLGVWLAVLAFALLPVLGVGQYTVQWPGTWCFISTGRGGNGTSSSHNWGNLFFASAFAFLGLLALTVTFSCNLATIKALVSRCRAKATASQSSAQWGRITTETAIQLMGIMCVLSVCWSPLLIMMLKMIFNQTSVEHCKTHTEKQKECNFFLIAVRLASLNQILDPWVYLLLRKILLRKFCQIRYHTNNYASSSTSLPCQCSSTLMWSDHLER
The experiment is described as follows: Binding affinity was determined against prostanoid EP3 receptor.

For experiment [3], the target named is T2, Prostaglandin E2 receptor EP4 subtype (Homo sapiens, UniProt P35408). The experiment is described as follows: Agonist activity against recombinant prostanoid EP4 receptor stably transfected in CHO cells. The format is functional, cell-based.
Experiment [4] concerns the target T3, Prostaglandin E2 receptor EP1 subtype (Homo sapiens, UniProt P34995).
T3 sequence (P34995 whole entry): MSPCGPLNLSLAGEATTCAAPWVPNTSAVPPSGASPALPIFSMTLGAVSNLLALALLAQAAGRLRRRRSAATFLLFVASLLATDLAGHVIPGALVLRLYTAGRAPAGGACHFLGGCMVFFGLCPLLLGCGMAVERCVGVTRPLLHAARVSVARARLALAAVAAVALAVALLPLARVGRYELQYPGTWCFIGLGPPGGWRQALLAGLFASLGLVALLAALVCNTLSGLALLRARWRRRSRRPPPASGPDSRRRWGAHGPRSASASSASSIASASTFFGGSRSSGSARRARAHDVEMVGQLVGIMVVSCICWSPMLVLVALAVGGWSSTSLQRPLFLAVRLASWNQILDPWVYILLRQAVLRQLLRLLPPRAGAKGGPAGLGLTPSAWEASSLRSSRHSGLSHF
The experiment is described as follows: Binding affinity was determined against prostanoid EP1 receptor.

Experiment [5] has as its target T2, Prostaglandin E2 receptor EP4 subtype. The experiment is described as follows: Binding affinity was determined against prostanoid EP4 receptor.

Chain of Prostaglandin E2 receptor EP2 subtype (P43116 whole entry): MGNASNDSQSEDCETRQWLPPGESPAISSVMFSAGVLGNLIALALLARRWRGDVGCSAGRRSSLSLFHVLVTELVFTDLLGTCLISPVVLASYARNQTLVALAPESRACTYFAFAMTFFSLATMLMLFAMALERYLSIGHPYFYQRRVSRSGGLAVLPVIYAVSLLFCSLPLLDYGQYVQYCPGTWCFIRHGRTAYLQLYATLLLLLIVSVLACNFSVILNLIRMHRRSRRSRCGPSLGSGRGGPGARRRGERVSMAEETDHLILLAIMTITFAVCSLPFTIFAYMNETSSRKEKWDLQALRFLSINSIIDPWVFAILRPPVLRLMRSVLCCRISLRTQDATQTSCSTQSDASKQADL
T2 sequence (P35408 whole entry): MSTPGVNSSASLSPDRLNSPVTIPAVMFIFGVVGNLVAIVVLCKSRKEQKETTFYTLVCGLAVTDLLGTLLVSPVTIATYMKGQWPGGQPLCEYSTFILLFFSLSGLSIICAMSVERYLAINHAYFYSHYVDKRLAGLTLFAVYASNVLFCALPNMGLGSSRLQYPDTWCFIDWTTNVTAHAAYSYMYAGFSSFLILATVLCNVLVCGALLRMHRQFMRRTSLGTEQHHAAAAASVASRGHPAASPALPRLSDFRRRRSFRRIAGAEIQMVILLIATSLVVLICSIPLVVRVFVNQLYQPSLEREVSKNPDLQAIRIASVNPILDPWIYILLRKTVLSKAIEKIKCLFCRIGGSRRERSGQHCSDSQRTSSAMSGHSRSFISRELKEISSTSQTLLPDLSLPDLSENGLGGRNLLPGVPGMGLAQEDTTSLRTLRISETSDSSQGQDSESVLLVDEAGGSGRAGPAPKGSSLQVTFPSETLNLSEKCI

One may read the Ki as the dissociation constant of the complex between target and ligand, obtained from inhibition or displacement. On to `O=C(O)CCCCCCN1C(=O)CC[C@@H]1/C=C/C(O)Cc1ccccc1` (some centres not stated), for which the Ki is 31 µM in experiment [1] and 100 µM in experiment [2].

In general, EC50 refers to the concentration giving half of the maximal effect. For `O=C(O)CCCCCCN1C(=O)CC[C@@H]1/C=C/C(O)C1(c2ccccc2)CC1` (some centres not stated), the EC50 in experiment [3] worked out at 0.18 µM. The Ki in experiment [4] is 28 µM; in experiment [1], 164 µM; in experiment [2] it was 20 µM.

Turning to `O=C(O)CCCCCCN1C(=O)CC[C@@H]1/C=C/C(O)c1cccc(Oc2ccccc2)c1` (some centres not stated), the results for the Ki in experiment [5], in experiment [4] and in experiment [2] were 0.032 µM, 50 µM and over 100 µM, respectively. The EC50 in experiment [3] was 0.085 µM.

Take `O=C(O)CCCCCCN1C(=O)CC[C@@H]1CC[C@@H](O)c1cccc(C(F)(F)F)c1`: the inhibitory constant (Ki) in experiment [5] was found to be 0.0074 µM; in experiment [2], 12 µM. Further, in experiment [3], the EC50 came out at 0.13 µM.

On to `CCCCC[C@H](O)/C=C/[C@@H]1CCC(=O)N1CCCCCCC(=O)O`, for which the EC50 in experiment [3] was over 100 µM.

With `Cc1cc(O)ccc1-c1cccc([C@H](O)CC[C@H]2CCC(=O)N2CCCCCCC(=O)O)c1`, the Ki in experiment [5] is 0.0082 µM; in experiment [1], 26 µM; in experiment [2] it was over 100 µM. For the same molecule, in experiment [3], the EC50 was 0.015 µM.

Turning to `O=C(O)CCCCCCN1C(=O)CC[C@@H]1/C=C/C(O)c1ccccc1` (some centres not stated), the Ki in experiment [5] stood at 2.3 µM; in experiment [1] it was 41 µM. For the same molecule, in experiment [3], the concentration for a half-maximal effect (EC50) was over 10 µM.

For `O=C(O)CCCCCCN1C(=O)CC[C@@H]1/C=C/C(O)c1cccc(-c2ccccc2Cl)c1` (some centres not stated), the results for the inhibitory constant (Ki) in experiment [5], in experiment [1] and in experiment [2] were 0.0062 µM, 42 µM and over 100 µM, respectively. The EC50 in experiment [3] was determined as 0.04 µM.

In the case of `Cc1cc(Cl)ccc1-c1cccc(C(O)/C=C/[C@H]2CCC(=O)N2CCCCCCC(=O)O)c1` (some centres not stated), the values for the Ki in experiment [5], in experiment [1] and in experiment [2] were 0.0031 µM, over 100 µM and 38 µM, respectively. Also, the EC50 in experiment [3] turned out to be 0.0008 µM.

Regarding `O=C(O)CCCCCCN1C(=O)CC[C@@H]1/C=C/C(O)c1ccccc1-c1ccccc1` (some centres not stated), in experiment [3], the EC50 was found to be 42 µM.

On to `O=C(O)CCCCCCN1C(=O)CC[C@@H]1/C=C/[C@@H](O)CC1CCC1`, for which the Ki in experiment [5] is 0.0042 µM; in experiment [1], over 100 µM; in experiment [2], 56 µM. The EC50 in experiment [3] worked out at 0.2 µM.

In the case of `O=C(O)CCCCCCN1C(=O)CC[C@@H]1/C=C/C(O)c1cccc(C(F)(F)F)c1` (some centres not stated), the inhibition constant Ki in experiment [5] is 0.14 µM; in experiment [1], 68 µM; in experiment [2], 131 µM. Further, the EC50 in experiment [3] amounted to 0.5 µM.

In the case of `CCCCC[C@H](O)/C=C/[C@H]1CCC(=O)N1CCCCCCC(=O)O`, the Ki is 0.0045 µM in experiment [5], over 100 µM in experiment [4], 4.5 µM in experiment [1] and 3 µM in experiment [2]. Also, the EC50 in experiment [3] turned out to be 0.056 µM.

As for `O=C(O)CCCCCCN1C(=O)CC[C@@H]1/C=C/[C@@H](O)CC1CCCCC1`, the Ki is 0.0075 µM in experiment [5], 71 µM in experiment [1] and 16 µM in experiment [2]. Further, the EC50 in experiment [3] was 0.12 µM.

For the molecule `CCCCC[C@@H](O)/C=C/[C@H]1CCC(=O)N1CCCCCCC(=O)O`, the EC50 in experiment [3] was determined as 6.1 µM.

For the molecule `O=C(O)CCCCCCN1C(=O)CC[C@@H]1/C=C/C(O)Cc1cccc(C(F)(F)F)c1` (some centres not stated), the EC50 in experiment [3] amounted to 0.017 µM. In addition, the Ki in experiment [4] is over 100 µM; in experiment [2], 12 µM.

In the case of `Cc1cc(O)ccc1-c1cccc(C(O)/C=C/[C@H]2CCC(=O)N2CCCCCCC(=O)O)c1` (some centres not stated), the inhibitory constant (Ki) in experiment [5] was 0.0049 µM; in experiment [1] it was over 100 µM; in experiment [2], over 100 µM. The EC50 in experiment [3] worked out at 0.013 µM.

Take `O=C(O)CCCCCCN1C(=O)CC[C@@H]1/C=C/[C@@H](O)Cc1cccc(C(F)(F)F)c1`: the Ki in experiment [5] was 0.0016 µM; in experiment [4], over 100 µM; in experiment [1] it was 29 µM; in experiment [2] it was 13 µM. Also, the EC50 in experiment [3] was 0.012 µM.

`CCCCC[C@@H](O)/C=C/[C@@H]1CCC(=O)N1CCCCCCC(=O)O`: the EC50 in experiment [3] is 200 µM.

With `O=C(O)CCCCCCN1C(=O)CC[C@@H]1/C=C/C(O)c1ccc(C(F)(F)F)o1` (some centres not stated), the Ki in experiment [5] was 0.01 µM; in experiment [1], 58 µM; in experiment [2], 4.9 µM. Moreover, the EC50 in experiment [3] worked out at 0.04 µM.

Consider `O=C(O)CCCCCCN1C(=O)CC[C@@H]1CC[C@@H](O)Cc1cccc(C(F)(F)F)c1`, for which the values for the Ki in experiment [5], in experiment [1] and in experiment [2] were 0.016 µM, 22 µM and 38 µM, respectively. The EC50 in experiment [3] was 0.46 µM.

On to `O=C(O)CCCCCCN1C(=O)CC[C@@H]1/C=C/C(O)c1cccc(-c2ccc(Cl)cc2)c1` (some centres not stated), for which the Ki is 0.39 µM in experiment [5], 4.2 µM in experiment [1] and over 100 µM in experiment [2]. In addition, the EC50 in experiment [3] stood at 0.05 µM.

On to `O=C(O)CCCCCCN1C(=O)CC[C@@H]1CCC(=O)c1cccc(C(F)(F)F)c1`, for which the EC50 in experiment [3] was over 10 µM.

Turning to `O=C(O)CCCCCCN1C(=O)CC[C@@H]1/C=C/C(O)c1cccc(-c2ccccc2)c1` (some centres not stated), the results for the Ki in experiment [5], in experiment [1] and in experiment [2] were 0.36 µM, 32 µM and over 100 µM, respectively. For the same molecule, the EC50 in experiment [3] was 0.36 µM.

As to `O=C(O)CCCCCCN1C(=O)CC[C@@H]1/C=C/C(O)c1cccc(-c2cccc(Cl)c2)c1` (some centres not stated), the Ki in experiment [5] was 0.42 µM; in experiment [1] it was 85 µM; in experiment [2] it was over 100 µM. Moreover, in experiment [3], the EC50 worked out at 0.17 µM.
